Test results from patent US20220000998A1 (priority 2019, published 2022).
No end group written: not given here.

Legend:
[1] = mouse, plasma
B3Z T-cells = assay type: cell-based, murine

Sequence	half-life [1]	T-cell activation after BMDC incubation with antibody constructs and the peptide (B3Z T-cells)
FIGITELKKLESKINKVFAVGALKVPRNQDWLGVPRQL [UU-30]	20 min	–
FIGITELKKLESKINKVFLEQLESIINFEKLAAAAAK [UU-05]	–	resulted in T-cell activation
LEQLESIINFEKLAAAAAK [UU-10, reference compound]	–	did not give rise to T-cell activation
